# Experimental data as given in patent publication US20120071451A1, “METHOD OF TREATING NONALCOHOLIC STEATOHEPATITIS WITH ELEVATED DOSES OF URSODEOXYCHOLIC ACID” (Aptalis Pharma Canada Inc., priority 2009, published 2012).
# Entries after “also recorded” stand apart in the source; their conditions may differ.
# Legend:
# [1] = test system: patients with histologically proven NASH; experiment: Multicenter randomized double-blind placebo-controlled clinical study of 28-35 mg/kg/day UDCA for treating NASH; format: in vivo, human; conditions: for Normalization ALAT: percent pts with normalized ALAT at 12 months; for Normalization ASAT: percent pts with normalized ASAT at 12 months
# Procedure: A multicenter randomized double-blind placebo-controlled study was conducted to examine the efficacy and tolerability of 28-35 mg/kg/day UDCA in patients with histologically proven NASH, ALAT and/or ASAT greater than 50 IU/L. A total of 120 patients were planned to receive either UDCA or placebo for a period of 12 months. Treatment was administered with meals. During the study, liver biochemistry, tolerability and side effects were monitored regularly. During the study, overweight and obese patients were encouraged to lose weight by following a hypocaloric diet and to maintain a certain level of physical activity. Drug treatments taken by patients for associated medical conditions were allowed. At the end of the 12th month, patients underwent an end of study evaluation and study treatments were stopped.
# Inclusion criteria: age of patients higher than 18 years; liver biopsy compatible with NASH: presence of steatosis >20% associated with hepatocyte ballooning and/or hepatic lobule necrosis during the last 18 months; ALAT or ASAT levels >50 IU/L at the screening visit (with at least 3 elevated transaminase levels in the last 12 months)
# Exclusion criteria: hepatic biopsy done before the last 18 months; no more than one normal value of transaminases during the last 12 months; patient was treated by UDCA during the last 12 months; loss of weight of more than 15% between the time of the hepatic biopsy and the screening; alcohol consumption higher than 20 g/day for women or higher than 30 g/day for men; presence of other causes of hepatitis such as chronic hepatitis B or C, increased serum ferritin associated with homozygosity for the C282Y mutation, primary biliary cirrhosis, primary sclerosing cholangitis, well documented autoimmune hepatitis (specific autoantibody, hpergammaglobulinaemia, histology-compatible), alpha-1 anti-trypsin deficiency, Wilson's disease, HIV infection; secondary causes of NASH: long term amiodarone-induced NASH, corticotherapy, obesity surgery within the last 2 years, Tamoxifen® treatment; Child's B or Child's C grade cirrhosis; presence of liver carcinoma; currently treated or treated during the past three years of hepatic biopsy with rosilitazone or pioglitazone; treatment with vitamin E during the past six months before screening; pregnant or breastfeeding women; unavailable histology slides for reading by the central laboratory.
# Discontinuation criteria: Subjects were free to discontinue the study at any time for any or for no reason, and without prejudice to further treatment. Patients who withdrew subsequent to the pre-study evaluations but before receiving any study medication were not considered dropouts and were not included in the database. Patients who were included in the study and received at least one dose of study medication were included in the database and considered part of the safety population. Patients who were included in the study and received a dose of study medication and for whom at least one post-baseline evaluation was available were analyzed as part of the Intent-to-Treat (ITT) population. Patients from the ITT population who completed the study without any major protocol violations were analyzed as part of the Per Protocol (PP) population.
# Main Endpoints: The primary endpoint was percent change in ALAT at 12 months vs. baseline. The secondary endpoints included: percent change in ASAT at 12 months vs. baseline; percent change Gamma-GT at 12 months vs. baseline; percent pts with normalized ALAT at 12 months; percent pts with normalized ASAT at 12 months; change in fibrosis index (FibroTest); change in inflammation index (Actitest); change in metabolic syndrome markers; and safety.
# FibroTest is a non-invasive blood test that provides a quantitative estimate of liver fibrosis and can be used to predict advanced fibrosis. ActiTest is a non-invasive blood test that is used to assess the activity of liver disease by measuring the degree of necrosis and inflammation. […]
# NASH patients = conditions: one year, 13-15 mg/kg/day; cited from earlier work
# patients with NASH [2] = conditions: two years, 13-15 mg/kg/day; cited from earlier work
# patients with NASH [3] = conditions: 15 mg/kg/day; cited from earlier work
# adult patients with PSC = conditions: cited from earlier work
# [4] = cited from earlier work
# [5] = 28-35 mg/kg/day UDCA in NASH patients
# [6] = mean change at 12 months vs. baseline, ITT, 30 mg/kg/day
# [7] = by the end of the study, n=76, 28-30 mg/kg/day
smiles,measurement,setting,value
"C[C@H](CCC(=O)O)[C@H]1CC[C@H]2[C@@H]3[C@@H](O)C[C@@H]4C[C@H](O)CC[C@]4(C)[C@H]3CC[C@]12C [UDCA, 3α, 7β-dihydroxy-5β-cholan-24-oic acid]",Asthenia and RUQP,[1]; [5],symptomatic improvement
same,Safety,[1]; [5],without any significant safety concerns
same,"ActiTest (effect on liver inflammation) change vs. baseline, Mean","[1]; ITT, at 6 months",−31.41%
same,"FibroTest (effect on fibrosis) change vs. baseline, Mean","[1]; ITT, at 6 months",−9.15%
same,"ActiTest (effect on liver inflammation) change vs. baseline, Mean","[1]; ITT, at 12 months",−30.97%
same,"FibroTest (effect on fibrosis) change vs. baseline, Mean","[1]; ITT, at 12 months",−8.11%
same,"ActiTest (effect on liver inflammation) change vs. baseline, Mean","[1]; PP, at 6 months",−31.23%
same,"FibroTest (effect on fibrosis) change vs. baseline, Mean","[1]; PP, at 6 months",−9.68%
same,"ActiTest (effect on liver inflammation) change vs. baseline, Mean","[1]; PP, at 12 months",−27.33%
same,"FibroTest (effect on fibrosis) change vs. baseline, Mean","[1]; PP, at 12 months",−5.40%
same,"GI symptoms (diarrhea, abdominal pain, motility problems) frequency versus placebo group",[1]; UDCA treatment group vs placebo group,−3 ×
same,Glycemia,"[1]; UDCA treatment group, increased in placebo group (p=0.023)",remained stable
same,HbA1c versus placebo,[1]; at 6 and 12 months (p<0.05),lower
same,Insulinemia versus placebo,[1]; at 12 months (p=0.038),lower
same,Fibrosis levels compared to placebo group,[1]; both ITT and PP populations,significant improvement
same,Liver inflammation levels compared to placebo group,[1]; both ITT and PP populations,significant improvement
same,"Mild diarrhea, abdominal pain, and gastrointestinal motility disorders versus placebo group","[1]; human, in vivo",more
same,"Time of maximum effect, percent change from baseline ALAT","[1]; human, in vivo",3 months
same,"Time of maximum effect, percent change from baseline ASAT","[1]; human, in vivo",3 months
same,"Time of maximum effect, percent change from baseline in Gamma-GT","[1]; human, in vivo",6 months
same,Δ % ALAT (SD),[1]; [6],−28±55%
same,Δ % ASAT (SD),[1]; [6],−8±59%
same,Δ % Gamma-GT (SD),[1]; [6],−51±28%
same,Individual effect on fibrosis: Fibrosis Decreased,[1]; percent of patients,35.7%
same,Individual effect on fibrosis: Fibrosis Increased,[1]; percent of patients,8.9%
same,Individual effect on fibrosis: Fibrosis Stable,[1]; percent of patients,55.4%
same,Normalization ALAT,[1]; ITT,25%
same,Normalization ALAT,[1]; PPP,29%
same,Normalization ASAT,[1]; ITT,32%
same,Normalization ASAT,[1]; PPP,36%
same,Fibrosis or inflammation,NASH patients,did not change
same,Liver enzyme and steatosis levels,NASH patients,improved
same,"Efficacy, UDCA treatment group versus placebo group",patients with NASH [2],did not show any differences
same,ALAT and Gamma-GT levels,patients with NASH [3],significant reduction
same,"Steatosis, necroinflammation, or fibrosis",patients with NASH [3],no improvements
same,Risk of a primary endpoint versus placebo,adult patients with PSC; adjusted for baseline stratification characteristics (p=0.011),2.2 times
same,Patients who had reached one of the pre-established clinical endpoints (number),adult patients with PSC; [7],28 patients
same,Patients who had reached one of the pre-established clinical endpoints (percent),adult patients with PSC; [7],37%
same,Amount of decrease of ASAT and AP levels versus placebo,adult patients with PSC; during therapy (p<0.01),greater
same,Adjusted relative risk for death or transplantation,adult patients with PSC; versus placebo (p=0.029),3.3
same,Serious adverse events,"adult patients with PSC; vs. 43% placebo, p=0.03",61%
same,Solubility in chloroform,[4]; chloroform,slightly soluble
same,Solubility in ethanol,[4]; ethanol,freely soluble
same,Solubility in ether,[4]; ether,sparingly soluble
same,Solubility in glacial acetic acid,[4]; glacial acetic acid,freely soluble
same,Solubility in intestinal fluids,"[4]; intestinal fluids, compared with water",more soluble
same,Solubility in water,[4]; water,virtually insoluble; also recorded: practically insoluble
